These molecules were tested against T1, PARP (Homo sapiens, UniProt P09874) (assay: PARP ELISA colorimetric assay of inhibition of PARP catalytic activity (IC50)). Details: pIC50=-log(IC50), IC50 in molar concentration; ELISA-based PARP kit, 10 minutes of catalysis.
T1 construct: purchased Trevigen 4684-096-01 (enzyme); kit 4684-096-K HT
T1 sequence (P09874 whole entry): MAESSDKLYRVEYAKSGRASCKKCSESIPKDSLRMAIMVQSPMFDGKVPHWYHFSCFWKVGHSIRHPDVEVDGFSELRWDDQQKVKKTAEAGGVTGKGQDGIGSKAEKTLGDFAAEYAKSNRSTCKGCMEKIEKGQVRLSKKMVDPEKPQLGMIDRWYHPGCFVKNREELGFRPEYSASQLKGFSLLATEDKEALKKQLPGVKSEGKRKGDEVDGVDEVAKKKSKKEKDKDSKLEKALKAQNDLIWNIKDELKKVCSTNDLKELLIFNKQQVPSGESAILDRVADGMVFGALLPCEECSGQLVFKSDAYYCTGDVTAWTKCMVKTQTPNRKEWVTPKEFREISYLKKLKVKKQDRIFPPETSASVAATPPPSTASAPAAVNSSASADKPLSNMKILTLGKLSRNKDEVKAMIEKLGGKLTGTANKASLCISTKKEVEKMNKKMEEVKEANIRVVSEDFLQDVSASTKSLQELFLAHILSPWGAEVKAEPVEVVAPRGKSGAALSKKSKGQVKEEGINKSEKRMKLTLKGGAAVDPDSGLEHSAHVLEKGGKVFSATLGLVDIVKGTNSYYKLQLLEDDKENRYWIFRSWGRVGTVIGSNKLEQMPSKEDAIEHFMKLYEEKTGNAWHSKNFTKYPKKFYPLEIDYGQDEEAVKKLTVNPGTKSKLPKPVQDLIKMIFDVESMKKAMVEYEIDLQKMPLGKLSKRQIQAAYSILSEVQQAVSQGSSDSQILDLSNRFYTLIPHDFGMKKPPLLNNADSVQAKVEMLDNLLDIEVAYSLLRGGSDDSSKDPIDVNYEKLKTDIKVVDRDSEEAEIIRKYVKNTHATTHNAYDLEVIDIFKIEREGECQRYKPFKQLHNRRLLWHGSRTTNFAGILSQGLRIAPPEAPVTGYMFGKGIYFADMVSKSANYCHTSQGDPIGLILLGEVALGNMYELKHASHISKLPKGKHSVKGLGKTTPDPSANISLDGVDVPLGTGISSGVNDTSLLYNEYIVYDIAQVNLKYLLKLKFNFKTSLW
Assay type: biochemical
Method: Inhibition Constant (IC50) from PARP ELISA
Inhibition of PARP catalytic activity was determined by use of an ELISA-based colorimetric PARP/Apoptosis Assay kit (part number 4684-096-K HT, Trevigen). To each histone coated well in the 96-well plate supplied by the manufacturer (part number 4677-096-P) is added 39 μl of PARP buffer (part number 4671-096-02) and 1 μl of test compound dissolved in DMSO (diluted serially 3-fold 11 times). After mixing, 5 μl of 0.1 nM PARP (part number 4684-096-01) is added and the solution allowed to stand at ambient temperature for 10 minutes. PARP catalysis is initiated with the addition of 5 μl of 100 μM β-nicotinamide adenine dinucleotide (NAD+) (part number 4684-096-02) with activated DNA (part number 4671-096-06). After 10 minutes of catalysis the reaction is quenched by solvent aspiration followed by irrigation of the assay wells 4 times with phosphate buffered saline (PBS) containing 0.1% t-Octylphenoxypolyethoxyethanol (Triton® X-100). Mouse Anti-poly ADP ribose (PAR) monoclonal antibody, goat antimouse immunoglobulin G (IgG)-horse radish peroxidase (HRP) conjugate and HRP substrate are added according to the manufacture's specifications to generate a colorimetric signal proportional to PARP catalytic activity. An IC50 for the test compound is calculated from the equation Absorbance=(Amax−background)/(1+([cmpd]/IC50)^n)+background fit to the 12 point test compound concentration gradient via nonlinear least squares.
For `CC(C)N1CC(=O)Nc2cc(CN3CCC(c4ccc(Cl)cc4)CC3)cnc21` [Compound 96, 7-((4-(4-chlorophenyl)piperidin-1-yl)methyl)-4-isopropyl-3,4-dihydropyrido[2,3-b]pyrazin-2(1H)-one], the IC50 was ≥ 50.1 nM.
`CCOC(=O)c1ccc(N2CCN(Cc3cnc4c(c3)NC(=O)[C@@H]3CCCN43)CC2)nc1` [Compound 121, (S)-ethyl 6-(4-((6-oxo-5,6,6a,7,8,9-hexahydropyrido[3,2-e]pyrrolo[1,2-a]pyrazin-3-yl)methyl)piperazin-1-yl)nicotinate] was tested, and the IC50 was 15.8 to 39.8 nM.
For `COc1cc(-c2ccc(N3CCN(Cc4cnc5c(c4)NC(=O)[C@@H]4CCCCN54)CC3)cc2)ccn1` [Compound 144, (S)-3-((4-(4-(2-methoxypyridin-4-yl)phenyl)piperazin-1-yl)methyl)-7,8,9,10-tetrahydro-5H-dipyrido[1,2-a:3′,2′-e]pyrazin-6(6aH)-one], the IC50 was ≥ 50.1 nM.
For `Nc1cccc(-c2ccc(N3CCN(Cc4cnc5c(c4)NC(=O)[C@@H]4CCCCN54)CC3)cc2)n1` [Compound 145, (S)-3-((4-(4-(6-aminopyridin-2-yl)phenyl)piperazin-1-yl)methyl)-7,8,9,10-tetrahydro-5H-dipyrido[1,2-a:3′,2′-e]pyrazin-6(6aH)-one], the IC50 was ≥ 50.1 nM.
`O=C1Nc2cc(CN3CCN(c4ccc(-c5ccsc5)cc4)CC3)cnc2N2CCCC[C@@H]12` [Compound 146, (S)-3-((4-(4-(thiophen-3-yl)phenyl)piperazin-1-yl)methyl)-7,8,9,10-tetrahydro-5H-dipyrido[1,2-a:3′,2′-e]pyrazin-6(6aH)-one] was tested, and the IC50 was 15.8 to 39.8 nM.
In the case of `O=C1Nc2cc(CN3CCN(c4ccc(-c5cccs5)cc4)CC3)cnc2N2CCCC[C@@H]12` [Compound 147, (S)-3-((4-(4-(thiophen-2-yl)phenyl)piperazin-1-yl)methyl)-7,8,9,10-tetrahydro-5H-dipyrido[1,2-a:3′,2′-e]pyrazin-6(6aH)-one], the IC50 is reported as ≥ 50.1 nM.
In the case of `O=C1Nc2cc(CN3CCN(c4ccc(-c5ccncc5)cc4)CC3)cnc2N2CCCC[C@@H]12` [Compound 148, (S)-3-((4-(4-(pyridin-4-yl)phenyl)piperazin-1-yl)methyl)-7,8,9,10-tetrahydro-5H-dipyrido[1,2-a:3′,2′-e]pyrazin-6(6aH)-one], the IC50 is reported as 15.8 to 39.8 nM.
In the case of `O=C1Nc2cc(CN3CCN(c4ccc(-c5ccccc5)cc4)CC3)cnc2N2CCCC[C@@H]12` [Compound 149, (S)-3-((4-(biphenyl-4-yl)piperazin-1-yl)methyl)-7,8,9,10-tetrahydro-5H-dipyrido[1,2-a:3′,2′-e]pyrazin-6(6aH)-one], the IC50 is reported as ≥ 50.1 nM.
For `COc1ccc(-c2ccc(N3CCN(Cc4cnc5c(c4)NC(=O)[C@@H]4CCCCN54)CC3)cc2)cn1` [Compound 150, (S)-3-((4-(4-(6-methoxypyridin-3-yl)phenyl)piperazin-1-yl)methyl)-7,8,9,10-tetrahydro-5H-dipyrido[1,2-a:3′,2′-e]pyrazin-6(6aH)-one], the IC50 was ≥ 50.1 nM.
`O=C1Nc2cc(CN3CCN(c4ccc(-c5cncnc5)cc4)CC3)cnc2N2CCCC[C@@H]12` [Compound 151, (S)-3-((4-(4-(pyrimidin-5-yl)phenyl)piperazin-1-yl)methyl)-7,8,9,10-tetrahydro-5H-dipyrido[1,2-a:3′,2′-e]pyrazin-6(6aH)-one] was tested, and the IC50 was ≥ 50.1 nM.
`COc1ncc(-c2ccc(N3CCN(Cc4cnc5c(c4)NC(=O)[C@@H]4CCCCN54)CC3)cc2)cn1` [Compound 152, (S)-3-((4-(4-(2-methoxypyrimidin-5-yl)phenyl)piperazin-1-yl)methyl)-7,8,9,10-tetrahydro-5H-dipyrido[1,2-a:3′,2′-e]pyrazin-6(6aH)-one] showed an IC50 of 15.8 to 39.8 nM.
For `COc1cnccc1-c1ccc(N2CCN(Cc3cnc4c(c3)NC(=O)[C@@H]3CCCCN43)CC2)cc1` [Compound 153, (S)-3-((4-(4-(3-methoxypyridin-4-yl)phenyl)piperazin-1-yl)methyl)-7,8,9,10-tetrahydro-5H-dipyrido[1,2-a:3′,2′-e]pyrazin-6(6aH)-one], the IC50 was ≥ 50.1 nM.
`Cc1ccccc1-c1ccc(N2CCN(Cc3cnc4c(c3)NC(=O)[C@@H]3CCCCN43)CC2)cc1` [Compound 154, (S)-3-((4-(2′-methylbiphenyl-4-yl)piperazin-1-yl)methyl)-7,8,9,10-tetrahydro-5H-dipyrido[1,2-a:3′,2′-e]pyrazin-6(6aH)-one] was tested, and the IC50 was ≥ 50.1 nM.
With `Cc1cnccc1-c1ccc(N2CCN(Cc3cnc4c(c3)NC(=O)[C@@H]3CCCCN43)CC2)cc1` [Compound 155, (S)-3-((4-(4-(3-methylpyridin-4-yl)phenyl)piperazin-1-yl)methyl)-7,8,9,10-tetrahydro-5H-dipyrido[1,2-a:3′,2′-e]pyrazin-6(6aH)-one] the IC50 was ≥ 50.1 nM.
With `COc1cccc(-c2ccc(N3CCN(Cc4cnc5c(c4)NC(=O)[C@@H]4CCCCN54)CC3)cc2)n1` [Compound 156, (S)-3-((4-(4-(6-methoxypyridin-2-yl)phenyl)piperazin-1-yl)methyl)-7,8,9,10-tetrahydro-5H-dipyrido[1,2-a:3′,2′-e]pyrazin-6(6aH)-one] the IC50 was ≥ 50.1 nM.
In the case of `O=C1Nc2cc(CN3CCN(c4ccc(-c5ccccn5)cc4)CC3)cnc2N2CCCC[C@@H]12` [Compound 157, (S)-3-((4-(4-(pyridin-2-yl)phenyl)piperazin-1-yl)methyl)-7,8,9,10-tetrahydro-5H-dipyrido[1,2-a:3′,2′-e]pyrazin-6(6aH)-one], the IC50 is reported as ≥ 50.1 nM.
`O=C1Nc2cc(CN3CCN(c4ccc(-c5cccnc5)cc4)CC3)cnc2N2CCCC[C@@H]12` [Compound 158, (S)-3-((4-(4-(pyridin-3-yl)phenyl)piperazin-1-yl)methyl)-7,8,9,10-tetrahydro-5H-dipyrido[1,2-a:3′,2′-e]pyrazin-6(6aH)-one] was tested, and the IC50 was ≥ 50.1 nM.
For `Cc1ccc(-c2ccc(N3CCN(Cc4cnc5c(c4)NC(=O)[C@@H]4CCCCN54)CC3)cc2)s1` [Compound 159, (S)-3-((4-(4-(5-methylthiophen-2-yl)phenyl)piperazin-1-yl)methyl)-7,8,9,10-tetrahydro-5H-dipyrido[1,2-a:3′,2′-e]pyrazin-6(6aH)-one], the IC50 was ≥ 50.1 nM.
In the case of `O=C1Nc2cc(CN3CCN(c4ccc(-c5ccccc5CO)cc4)CC3)cnc2N2CCCC[C@@H]12` [Compound 160, (S)-3-((4-(2′-(hydroxymethyl)biphenyl-4-yl)piperazin-1-yl)methyl)-7,8,9,10-tetrahydro-5H-dipyrido[1,2-a:3′,2′-e]pyrazin-6(6aH)-one], the IC50 is reported as ≥ 50.1 nM.
For `Cc1cscc1-c1ccc(N2CCN(Cc3cnc4c(c3)NC(=O)[C@@H]3CCCCN43)CC2)cc1` [Compound 161, (S)-3-((4-(4-(4-methylthiophen-3-yl)phenyl)piperazin-1-yl)methyl)-7,8,9,10-tetrahydro-5H-dipyrido[1,2-a:3′,2′-e]pyrazin-6(6aH)-one], the IC50 was ≥ 50.1 nM.
With `Cc1ccsc1-c1ccc(N2CCN(Cc3cnc4c(c3)NC(=O)[C@@H]3CCCCN43)CC2)cc1` [Compound 162, (S)-3-((4-(4-(3-methylthiophen-2-yl)phenyl)piperazin-1-yl)methyl)-7,8,9,10-tetrahydro-5H-dipyrido[1,2-a:3′,2′-e]pyrazin-6(6aH)-one] the IC50 was ≥ 50.1 nM.
For `O=C1CCC=C1c1ccc(N2CCN(Cc3cnc4c(c3)NC(=O)[C@@H]3CCCCN43)CC2)cc1` [Compound 163, (S)-3-((4-(4-(5-oxocyclopent-1-enyl)phenyl)piperazin-1-yl)methyl)-7,8,9,10-tetrahydro-5H-dipyrido[1,2-a:3′,2′-e]pyrazin-6(6aH)-one], the IC50 was ≥ 50.1 nM.
Molecule `Cc1ccc(-c2ccc(N3CCN(Cc4cnc5c(c4)NC(=O)[C@@H]4CCCCN54)CC3)cc2)cn1` [Compound 164, (S)-3-((4-(4-(6-methylpyridin-3-yl)phenyl)piperazin-1-yl)methyl)-7,8,9,10-tetrahydro-5H-dipyrido[1,2-a:3′,2′-e]pyrazin-6(6aH)-one] has an IC50 of 15.8 to 39.8 nM.
`Cn1cc(-c2ccc(N3CCN(Cc4cnc5c(c4)NC(=O)[C@@H]4CCCCN54)CC3)cc2)cn1` [Compound 165, (S)-3-((4-(4-(1-methyl-1H-pyrazol-4-yl)phenyl)piperazin-1-yl)methyl)-7,8,9,10-tetrahydro-5H-dipyrido[1,2-a:3′,2′-e]pyrazin-6(6aH)-one] was tested, and the IC50 was 15.8 to 39.8 nM.
Work on `Cc1ccnc(-c2ccc(N3CCN(Cc4cnc5c(c4)NC(=O)[C@@H]4CCCCN54)CC3)cc2)c1` [Compound 166, (S)-3-((4-(4-(4-methylpyridin-2-yl)phenyl)piperazin-1-yl)methyl)-7,8,9,10-tetrahydro-5H-dipyrido[1,2-a:3′,2′-e]pyrazin-6(6aH)-one] yielded an IC50 of 15.8 to 39.8 nM.
`Cc1cc(-c2ccc(N3CCN(Cc4cnc5c(c4)NC(=O)[C@@H]4CCCCN54)CC3)cc2)ccn1` [Compound 167, (S)-3-((4-(4-(2-methylpyridin-4-yl)phenyl)piperazin-1-yl)methyl)-7,8,9,10-tetrahydro-5H-dipyrido[1,2-a:3′,2′-e]pyrazin-6(6aH)-one] was tested, and the IC50 was 15.8 to 39.8 nM.
`O=C1Nc2cc(CN3CCN(c4ccc(-c5cnccn5)cc4)CC3)cnc2N2CCCC[C@@H]12` [Compound 168, (S)-3-((4-(4-(pyrazin-2-yl)phenyl)piperazin-1-yl)methyl)-7,8,9,10-tetrahydro-5H-dipyrido[1,2-a:3′,2′-e]pyrazin-6(6aH)-one] was tested, and the IC50 was 15.8 to 39.8 nM.

Source: patent US9187497B2, “Substituted pyrido[3,2-e]pyrrolo[1,2-a]pyrazines as inhibitors of poly(ADP-ribose)polymerase (PARP)” (Takeda Phamaceutical Company Limited, priority 2009, dated 2015)
